The target of experiment [1] is T1, Diacylglycerol O-acyltransferase 1 (Homo sapiens, UniProt O75907).
T1 sequence (O75907 whole entry): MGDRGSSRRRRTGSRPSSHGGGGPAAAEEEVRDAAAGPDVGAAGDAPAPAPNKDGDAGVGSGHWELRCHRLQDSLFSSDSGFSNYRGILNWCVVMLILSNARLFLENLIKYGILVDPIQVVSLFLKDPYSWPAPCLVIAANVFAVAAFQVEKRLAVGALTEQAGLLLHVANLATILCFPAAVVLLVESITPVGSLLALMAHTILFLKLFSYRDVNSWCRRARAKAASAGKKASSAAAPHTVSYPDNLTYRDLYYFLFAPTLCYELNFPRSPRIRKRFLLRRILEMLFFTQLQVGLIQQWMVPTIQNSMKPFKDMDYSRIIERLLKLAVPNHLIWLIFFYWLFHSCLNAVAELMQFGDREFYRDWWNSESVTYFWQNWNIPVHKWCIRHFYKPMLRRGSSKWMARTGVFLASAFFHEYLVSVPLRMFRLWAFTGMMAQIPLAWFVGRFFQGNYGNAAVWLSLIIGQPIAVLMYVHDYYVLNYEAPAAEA
As to the kind of experiment: Inhibition of human DGAT1 using 1,2-diacylglycerol/[14C]-oleoyl CoA as substrate assessed as [14C]-triglyceride formation after 10 mins by scintillation counting analysis.

The test system of a further experiment is Mus musculus. As to the kind of experiment: Reduction of plasma triglyceride AUC (0 to 4 hrs) in fasted Swiss mouse at 3 mg/kg, po administered 1 hr followed by bolus dose of olive oil by acute fat tolerance test relative to vehicle-treated control. Format: functional. Also on record: scale not given: the % may be the effect or the level left.

The structures appear in SMILES notation.

As a reminder, the IC50 is the point on the concentration scale where inhibition reaches its midpoint.

With `O=C(Nc1ccc(C2CCN(C(=O)[C@H]3CC[C@H](C(=O)O)CC3)CC2)cc1)c1nc(-c2ccccc2)oc1C(F)(F)F`, the IC50 in experiment [1] worked out at 0.114 µM. Besides, the Activity in the experiment on Mus musculus is recorded as 89%.
With `O=C(Nc1ccc(-c2cnc(C(=O)N[C@H]3CC[C@H](C(=O)O)CC3)s2)cc1)Nc1ccccc1F`, the Activity in the experiment with Mus musculus was 112%.

The values above are taken from ChEMBL document CHEMBL3232961, “Synthesis and evaluation of cyclohexane carboxylic acid head group containing isoxazole and thiazole analogs as DGAT1 inhibitors” (Eur J Med Chem, 2014).
